Reference: patent US6613322B2, “Method for treating a subject suffering from conditions associated with an extracellular zinc sphingomyelinase” (The Trustees of Columbia University in the City of New York, priority 1997, dated 2003)

Columns and labels:
B. cereus SMase = B. cereus SMase (Bacillus cereus, UniProt P11889); conditions: 25 mM EDTA present from the start; 50 mU B. cereus SMase/ml, LDL 2 mg/ml, 37° C.
Procedure: Kinetics of SM hydrolysis and LDL aggregation induced by SMase and the effects of enzymatic inhibition. FIG. 1A: LDL (2 mg/ml) was incubated with 50 mU B. cereus SMase/ml at 37° C. in PES containing 5 nM MgCl2. At the indicated time points, aliquots of the LDL were harvested then assayed for extent of SM hydrolysis (closed triangles) and for aggregation (open squares) FIG. 1B. LDL was incubated in PBS containing 5 mM MgCl2 in the absence of SMase (filled circles), or in the presence of SMase without EDTA (open squares), with 25 mM EDTA present from the start of the incubation (open triangles), or with 25 mM EDTA added after 20 min of incubation (closed triangles) Samples were assayed for turbidity at the indicated timepoints. FIG. 1C, Aliquots from the 180-min timepoint in FIG. 1B were assayed for SM content.
Careful analysis of the time course of B. cereus SMase-induced LDL aggregation and LDL-SM hydrolysis was done. […] These kinetics are consistent with two possible mechanisms: a slow structural action of SMase, or a rapid enzymatic action that alters the particles so that they then slowly aggregate. To distinguish between these possibilities, EDTA was used to inhibit the enzymatic activity of the bacterial B. cereus SMase, which is a Mg^2+-dependent enzyme (Ikezawa et al., 1986).

arterial-wall SMase = conditions: for hydrolysis of LDL-sphingomyelin by rabbit aorta ex vivo (summary statement): Example 4 restatement
Procedure: Hydrolysis of [^3H]SM-LDL by strips of rabbit aorta. Aortae were isolated from rabbits fed a high-cholesterol diet for 18 d and incubated ex vivo for 3.5 h at 37° C. with 2 mg [^3H]palmitate-SM-labeled LDL per ml DMEM/0.2% BSA (usually ^18 12 mg total). Material extracted from these strips (Retained) was assayed for [^3H]SM and [^3H]ceramide; approximately 0.1% of the [^3H]SM-LDL (10-20 μg LDL protein) was retained during the 3.5-h incubation period. These [^3H]lipids were also assayed in ^3[H]SM-LDL not exposed to aorta but incubated in extraction buffer (No Aorta) as well as in [^3H]SM-LDL that was not retained by the aortic strips (i.e., still present in the medium after the 3.5-h incubation) and also incubated in extraction buffer (Unretained). For experiments #1 and #2 (FIG. 6A), portions of the aortic strips were preincubated with DMEM/0.2% BSA containing 15 mM EDTA for 30 min, and the 3.5-h incubation was also carried out in the presence of 15 mM EDNA.
Assay for LDL-SM hydrolysis by strips of rabbit aorta ex vivo. New Zealand white male rabbits (2-3 kg) were fed a chow diet containing 0.2% cholesterol and 10% soybean oil (w/w) for 18 days. The animals were sacrificed, and the thoracic aortae were removed rapidly and placed in a dissection dish with physiological Hank's Trizma maleate buffer (133 mM NaCl, 3.6 mM KCl, 1.0 mM CaCl2, 5.0 mM Trizma maleate, 16 mM dextrose, pH 7.3). The aortae were then further dissected to remove excess fat and any clotted blood and then cut longitudinally and pinned, lumen side up, in a tissue culture dish. The aortic strips were washed several times with DMEM/0.2% BSA and incubated at 37° C. for 3.5 h in DMEM/0.2% BSA containing 2 mg [^3H]SM-labeled LDL per ml. […] When present, these reagents were also added to the corresponding incubation media containing labeled LDL (see legend to FIG. 5). After the 3.5-h incubation of labeled LDL with aortic strips, media were removed (see below), the aortic strips were quickly washed twice in ice-cold PBS, and the center of the strip was cut away from the original cut ends. These center pieces were then minced and extracted in PBS, pH 7.4, containing 6 M guanidine-HCl, 5 mM EDTA, 0.02% sodium azide, 35 μM leupeptin, 1.5 mg aprotinin/ml, and 5 μM pepstatin A for 36 h at 4° C. The extract was centrifuged at 35,000×g for 30 min, and lipids were extracted from the supernate by the method of Bligh and Dyer (Bligh et al., 1959). [^3H]palmitate-SM, ^3 [H]palmitate-ceramide, and free [^3H]palmitate in the lipid extracts were separated by TLC using chloroform:methanol (95:5, v/v) or n-propanol:12.5% ammonium hydroxide (80:20, v/v). […]

S-SMase = biological target: T1, S-SMase (Mus musculus, UniProt Q04519); experiment: SMase assay of conditioned medium from J774 macrophages (SM micelles, pH 5.0); type: biochemical; conditions: treatment with EDTA alone
T1 construct: endogenous in cells; host or cells: J774.A1 macrophages, serum-free conditioned medium
T1 sequence (Q04519 45-627): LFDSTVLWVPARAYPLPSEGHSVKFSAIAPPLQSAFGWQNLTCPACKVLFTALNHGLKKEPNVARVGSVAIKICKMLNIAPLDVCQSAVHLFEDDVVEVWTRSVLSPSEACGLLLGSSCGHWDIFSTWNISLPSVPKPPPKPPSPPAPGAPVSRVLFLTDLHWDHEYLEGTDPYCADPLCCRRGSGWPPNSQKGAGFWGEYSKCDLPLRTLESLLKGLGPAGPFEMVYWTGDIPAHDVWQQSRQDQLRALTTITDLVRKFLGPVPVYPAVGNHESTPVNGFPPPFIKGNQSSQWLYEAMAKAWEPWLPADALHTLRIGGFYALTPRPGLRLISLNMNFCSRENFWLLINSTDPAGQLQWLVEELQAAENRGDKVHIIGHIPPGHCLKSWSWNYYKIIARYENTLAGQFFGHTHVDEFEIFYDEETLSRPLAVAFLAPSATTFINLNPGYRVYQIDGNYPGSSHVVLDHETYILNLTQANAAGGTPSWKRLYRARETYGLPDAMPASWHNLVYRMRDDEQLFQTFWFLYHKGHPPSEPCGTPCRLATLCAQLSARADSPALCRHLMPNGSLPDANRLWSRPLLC
Procedure: FIGS. 14A-B. Sequential chelation and addition of Zn^2+ to secreted and intracellular SMase. Serum-free conditioned medium and a cell homogenate from J774 macrophages were prepared as described in “Experimental Procedures”. FIG. 14A, conditioned medium (CM) was assayed for SMase activity using 250 nM [^3H]sphingomyelin in Triton X-100 micelles in the presence of either 5 mM EDTA (first bar) or 0.1 mM ZnCl2 (second bar) for 1 h at 37° C. at pH 5.0. An aliquot of the Zn-activated conditioned medium was then incubated for 18 h in the presence of 10 mM EDTA, 10 mM 1,10-phenanthroline, and 0.6% Triton X-100 at 4° C. (EDTA PHNANTH) and then assayed for SMase activity (third bar). After chelation, a portion of this partially inactivated conditioned medium was then dialyzed against zinc-containing buffer C (150 mM NaCl, 10 mM Tris-HCl, 1 mM ZnCl2, 0.6% Triton X-100, pH 7.4) for 18 h and then assayed for SMase activity (fourth bar). FIG. 14B, an aliquot of cell homogenate (Cell Homgn) was assayed for SMase activity in the presence of assay buffer alone (first bar), 5 mM EDTA (second bar), or 0.1 mM ZnCl2 (third bar). Another aliquot of cell homogenate was incubated for 8 h in the presence of 10 mM EDTA, 10 mm 1,10-phenanthroline, and 0.6% Triton X-100 (EDTA PHNANTH) at 4° C. and then assayed for SMase activity (fourth bar). An aliquot of this chelator-treated cell homogenate was then dialyzed against zinc-containing buffer C for 18 h and then assayed for SMase activity (fifth bar).
(§1) SMase Assay—As previously described (Schissel et al., 1996), the standard 200-μl assay mixture consisted of up to 40 μl of sample (conditioned media or homogenized cells; see above) and a volume of assay buffer (0.1 M sodium acetate, pH 5.0) to bring the volume to 160 μl. […] The ceramide spots were scraped and directly counted to quantify [^3H]ceramide. Typically, the assay reactions contained approximately 20 μg of cellular homogenate protein and a volume of conditioned media derived from a quantity of cells equivalent to approximately 50 μg of cellular protein.

L-SMase = biological target: T2, L-SMase (Mus musculus, UniProt Q04519); experiment: SMase assay of cell homogenate from J774 macrophages (SM micelles, pH 5.0); type: biochemical; conditions: 5 mM EDTA in assay
T2 construct: endogenous in cells; host or cells: J774.A1 macrophages, sonicated cell homogenate
T2 sequence (Q04519 45-627): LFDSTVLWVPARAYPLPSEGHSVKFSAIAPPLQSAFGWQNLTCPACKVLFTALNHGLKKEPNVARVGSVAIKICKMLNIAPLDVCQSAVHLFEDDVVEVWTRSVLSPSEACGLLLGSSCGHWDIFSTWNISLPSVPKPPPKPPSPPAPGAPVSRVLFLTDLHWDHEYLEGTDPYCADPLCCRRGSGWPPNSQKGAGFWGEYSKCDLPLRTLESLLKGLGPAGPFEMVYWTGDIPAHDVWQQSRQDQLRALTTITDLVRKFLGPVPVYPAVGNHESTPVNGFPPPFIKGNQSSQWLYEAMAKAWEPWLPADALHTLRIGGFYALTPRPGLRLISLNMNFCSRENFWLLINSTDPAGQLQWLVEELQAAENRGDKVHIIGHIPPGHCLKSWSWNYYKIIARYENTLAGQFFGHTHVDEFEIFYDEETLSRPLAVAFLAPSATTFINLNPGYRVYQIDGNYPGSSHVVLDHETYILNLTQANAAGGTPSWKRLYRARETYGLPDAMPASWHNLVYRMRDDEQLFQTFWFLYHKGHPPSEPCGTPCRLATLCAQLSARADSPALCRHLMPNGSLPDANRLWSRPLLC
Procedure: FIGS. 14A-B. Sequential chelation and addition of Zn^2+ to secreted and intracellular SMase. Serum-free conditioned medium and a cell homogenate from J774 macrophages were prepared as described in “Experimental Procedures”. FIG. 14A, conditioned medium (CM) was assayed for SMase activity using 250 nM [^3H]sphingomyelin in Triton X-100 micelles in the presence of either 5 mM EDTA (first bar) or 0.1 mM ZnCl2 (second bar) for 1 h at 37° C. at pH 5.0. An aliquot of the Zn-activated conditioned medium was then incubated for 18 h in the presence of 10 mM EDTA, 10 mM 1,10-phenanthroline, and 0.6% Triton X-100 at 4° C. (EDTA PHNANTH) and then assayed for SMase activity (third bar). […]
as §1

lysosomal SMase = biological target: T3, lysosomal SMase (Homo sapiens, UniProt P17405); experiment: Cellular hydrolysis of [3H]SM-LDL by cultured human fibroblasts; type: cell-based; conditions: read-out: inhibition of cellular hydrolysis of [3H]SM-LDL
T3 construct: endogenous in cells; host or cells: cultured human fibroblasts
T3 sequence (P17405 47-631): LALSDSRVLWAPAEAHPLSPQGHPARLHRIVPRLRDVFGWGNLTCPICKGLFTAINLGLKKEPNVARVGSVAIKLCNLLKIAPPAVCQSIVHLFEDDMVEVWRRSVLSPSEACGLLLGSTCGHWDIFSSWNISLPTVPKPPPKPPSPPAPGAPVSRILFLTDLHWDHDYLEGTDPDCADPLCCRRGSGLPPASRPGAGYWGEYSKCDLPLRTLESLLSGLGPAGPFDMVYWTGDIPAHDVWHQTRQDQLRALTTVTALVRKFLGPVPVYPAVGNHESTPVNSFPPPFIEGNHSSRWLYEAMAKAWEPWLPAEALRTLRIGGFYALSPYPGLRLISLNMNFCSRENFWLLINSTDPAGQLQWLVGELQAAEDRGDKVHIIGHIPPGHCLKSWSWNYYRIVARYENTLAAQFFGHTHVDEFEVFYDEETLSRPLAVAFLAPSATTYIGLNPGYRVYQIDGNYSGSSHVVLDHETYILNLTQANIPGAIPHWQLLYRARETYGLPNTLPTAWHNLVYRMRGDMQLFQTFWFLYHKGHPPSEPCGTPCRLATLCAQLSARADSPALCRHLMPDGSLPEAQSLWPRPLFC
Procedure: Second, the ability of chloroquine to work in the aortic strip assay was tested.

lysosomal hydrolases = experiment: 125I-EGF degradation by aortic strips; design: species or system rabbit; conditions: 200 μM chloroquine, 3.5 h
Procedure: Iodination of EGF and assay for ^125I-EGF degradation. Epidermal growth factor (50 μg) was radioiodinated to a specific activity of 5400 counts/min/ng (IODOBEADS®, Pierce Chemical Co., Rockford, Ill.) and was used within 48 h of labeling.
For this study, ^125I-labeled epidermal growth factor (^125I-EGF) was used, which is known to be internalized by receptor-mediated endocytosis and degraded in lysosomes in many cell types (Goldstein et al., 1985).

EC matrix = experiment: 125I-S-SMase binding to matrix derived from cultured cells; conditions: in presence of lipoprotein lipase
From the text: In vitro, Smase causes lipoprotein aggregation, which is a key feature of atheromata and an inducer of foam cells. […] We have identified S-Mase (JBC 271:18431) as a candidate for this arterial Smase, owing to its secretion by endothelial cells (ECs) and macrophages and for its ability to hydrolzye atherogenic lipoproteins (JBC 273:2738 & 4081). We addressed two questions critical to the role of S-SMase in atherogenesis: is S-SMase present in lesions and does S-SMase bind matrix after secretion? Using two different anti-SMase antibodies, Smase staining was prominent in the endothelium of normal rabbit and mouse aorta. In atherosclerotic aorta from cholesterol-fed rabbits and apoE knockout mice and in human coronary lesions, there was very heavy Smase staining throughout the entire intima (endothelium and foam cells). In both normal and lesional aorta, there was staining of the mdia but far less than in the intima. […] To explore this point in vitro, ^125I-S-SMase was incubated with matrix derived from cultured smooth muscle or Ecs. With both, the moles of bound ^125I-S-SMase were≧bound ^125I-LDL, which is known to associate with matrix in vitro and in vivo. […] In summary, Smase, an enzyme implicated in atherogenesis, is present in normal endothelium and especially lesional intima, and there is evidence that S-Mase binds matrix both in vivo and in vitro.

[1] = system: S-SMase secretion by HUVECs; experiment: Cytokine regulation of S-SMase secretion by HUVECs (SMase activity in conditioned media); type: cell-based, human; conditions: 18 h, IL-1β 5 ng/ml, interferon-γ 1000 units/ml
Procedure: The cells were then washed 3 times with PBS and incubated for 24 h in 1 ml fresh serum-free media containing 0.2%6 BSA. This 24-h conditioned medium was collected for SMase assays.
Harvesting of Cells and Conditioned Media—Following the incubations described above and in the figure legends, cells were placed on ice and the serum-free conditioned media was removed. The cells were washed two times with ice-cold 0.25 M sucrose and scraped into 0.3 ml and 3.0 ml of this sucrose solution per 35-mm and 100-mm dishes, respectively. Unless indicated otherwise, the scraped cells were disrupted by sonication on ice using three 5-second bursts (Branson 450 Sonifier), and the cellular homogenates were assayed for total protein by the method of Lowry et al. (22) and for SMase activity as described below. The conditioned media were spun at 800×g for 5 min to pellet any contaminating cells and concentrated six-fold using a Centriprep 30 (Amicon; Beverly, Mass.) concentrator (molecular weight cut off=30,000).
Typically, our assay reactions contained approximately 20 μg of cellular homogenate protein and a volume of conditioned media derived from a quantity of cells equivalent to approximately 50 μg of cellular protein.

L-SMase of HUVECs = experiment: Cytokine regulation of L-SMase activity in HUVEC cell homogenates; type: cell-based, human; conditions: cytokine-treated endothelial cells
Procedure: FIGS. 23A-B. Cytokine regulation of S- and L-SMase of HUVECs. […] Conditioned media (FIG. 23A) and cell homogenates (FIG. 23B) from these cells were then assayed for SMase activity in the presence or absence of 0.1 mM ZnCl2, respectively.
Cells—Primary cultures of HUVEC were obtained from fresh umbilical cords and maintained in cell culture as previously described (31). Human coronary artery endothelial cells from a donor were purchased from Clonetics Corp. (San Diego, Calif.; cat. # CC-2585, Strain #3033). The cells were grown in endothelial basal media (EBM) (Clonetics) supplemented with 10% HI-FES; 10 μg endothelial cell growth supplement/ml (Sigma; cat. # E0760) and 50 μg gentamicin/ml. Primary cultures of bovine aortic endothelial, cells were established and subcultured as described previously (32). […]

Chain of B. cereus SMase (P11889 28-333): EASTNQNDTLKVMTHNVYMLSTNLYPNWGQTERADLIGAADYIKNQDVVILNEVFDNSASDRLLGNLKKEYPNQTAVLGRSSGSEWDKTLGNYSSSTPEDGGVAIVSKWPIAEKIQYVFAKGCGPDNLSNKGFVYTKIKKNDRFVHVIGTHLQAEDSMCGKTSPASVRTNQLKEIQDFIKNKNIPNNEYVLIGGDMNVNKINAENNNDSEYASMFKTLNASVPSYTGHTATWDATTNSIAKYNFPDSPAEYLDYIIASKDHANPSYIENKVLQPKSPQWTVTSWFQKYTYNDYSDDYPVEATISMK

O=C(O)CN(CCN(CC(=O)O)CC(=O)O)CC(=O)O [EDTA]
inhibition of LDL aggregation (turbidity) (B. cereus SMase): complete inhibition
inhibition of LDL-SM hydrolysis (B. cereus SMase): complete inhibition
decrease in generation of ceramide in extracted (retained) material (arterial-wall SMase; 15 mM EDTA, 30 min preincubation and 3.5-h incubation with [3H]SM-LDL): approximately 50%
hydrolysis of LDL-sphingomyelin by rabbit aorta ex vivo (summary statement) (arterial-wall SMase): inhibited
effect on S-SMase enzyme activity (S-SMase): did not affect enzyme activity
inhibition of L-SMase in cell homogenates (L-SMase): not inhibited

CCN(CC)CCCC(C)Nc1ccnc2cc(Cl)ccc12 (stereo not shown) [chloroquine]
inhibition of [3H]ceramide enrichment of retained material (arterial-wall SMase; 200 μM chloroquine, 30 min preincubation and 3.5-h incubation): no substantial inhibition
hydrolysis of LDL-sphingomyelin by rabbit aorta ex vivo (summary statement) (arterial-wall SMase): not inhibited
inhibition at 50 µM (lysosomal SMase): 73%
block of degradation of 125I-EGF (lysosomal hydrolases): 50%

B1: lipoprotein lipase: arterial-wall enzyme (protein, UniProt P06858 28-475, looked up)
Lipoprotein lipase: ADQRRDFIDIESKFALRTPEDTAEDTCHLIPGVAESVATCHFNHSSKTFMVIHGWTVTGMYESWVPKLVAALYKREPDSNVIVVDWLSRAQEHYPVSAGYTKLVGQDVARFINWMEEEFNYPLDNVHLLGYSLGAHAAGIAGSLTNKKVNRITGLDPAGPNFEYAEAPSRLSPDDADFVDVLHTFTRGSPGRSIGIQKPVGHVDIYPNGGTFQPGCNIGEAIRVIAERGLGDVDQLVKCSHERSIHLFIDSLLNEENPSKAYRCSSKEAFEKGLCLSCRKNRCNNLGYEINKVRAKRSSKMYLKTRSQMPYKVFHYQVKIHFSGTESETHTNQAFEISLYGTVAESENIPFTLPEVSTNKTYSFLIYTEVDIGELLMLKLKWKSDSYFSWSDWWSSPGFAIQKIRVKAGETQKKVIFCSREKVSHLQKGKAPAVFVKCHDKSLNKKSG
S-SMase binding to matrix (EC matrix): enhanced

B2: interferon-γ: human recombinant interferon-γ (protein, UniProt P01579 24-161, looked up)
Interferon gamma: QDPYVKEAENLKKYFNAGHSDVADNGTLFLGILKNWKEESDRKIMQSQIVSFYFKLFKNFKDDQSIQKSVETIKEDMNVKFFNSNKKKRDDFEKLTNYSVTDLNVQRKAIHELIQVMAELSPAAKTGKRKRSQMLFRG
increase of S-SMase activity / secretion (conditioned media) [1]: ~3 fold
L-SMase (lysosomal SMase) activity (L-SMase of HUVECs): decreased
